Experimental data published in patent US20240385087A1, “METHOD FOR STAINING MITOCHONDRIA” (TOCRIS COOKSON LIMITED, priority 2021, published 2024).
Entries after “also recorded” stand apart in the source; their conditions may differ.

Key:
Format in all cases: cell-based
HeLa cells = assay: Optimization of stain concentration for imaging HeLa cells; conditions: 50 nM, 60 mins, no washout, same laser power/settings
Experimental: HeLa cells were incubated with the comparator or COMPOUND 1 for 60 mins at indicated doses and imaged at the same laser power/settings. NOTE: no washout step to remove unbound comparator was performed (manufacturer recommends this) to enable direct comparison with COMPOUND 1. Some toxicity is observed with 100 nM of comparator.
(§1) Mitochondrial stains were diluted to working concentrations from 10 mM DMSO stock solutions into DMEM containing 10% FCS and 25 mM HEPES. Solutions were incubated with HeLa cells at 37° C. in a humidified 5% CO2 incubator for the indicated period of time prior to imaging, typically without a washout step (though a washout step can be performed). A Nikon A1R TiE confocal laser scanning microscope equipped with environmental chamber (37° C.) was used for live-cell imaging, employing 561 nm and 640 nm diode laser lines, a Nikon A1R Plan APO VC 60x Oil lens (NA 1.4), pinhole at 1AU. The images were acquired using NIS Elements software and processed using ImageJ.

[1] = system: mitochondria in HeLa cells; assay: Mitochondrial localisation and membrane-potential dependence in HeLa cells (oligomycin / CCCP treatment, confocal imaging)
Experimental: as §1

[2] = system: mitochondria in HeLa cells; assay: Time-course live-cell confocal imaging of stained HeLa cells (photostability, localisation, phototoxicity); conditions: 50 nM for 60 mins; for (photo)-toxicity during prolonged imaging / localisation at mitochondria over time / photostability / signal over time: live imaging every 5 seconds for 240 frames
Experimental: Within this time frame, COMPOUND 1 intensity drops by ˜25% during the imaging period compared to the comparator which drops by 65%.
Data from two samples of COMPOUND 3,measured at different timepoints is overlaid in the graph (right).
as §1

Row | Structure (SMILES) | imaging result (HeLa cells) | effect of de-polarizing the mitochondrial membrane with CCCP on stain ([1]; HeLa cells, 50 nM stain for 60 mins, then CCCP 10 μM up to 60 minutes) | effect of hyper-polarizing the mitochondrial membrane with oligomycin on stain ([1]; HeLa cells, 50 nM stain for 60 mins, then Oligomycin 5 μg/mL up to 60 minutes) | localisation of stain ([1]; mitochondrial stain, due to charge potential across the mitochondrial membrane) | (photo)-toxicity during prolonged imaging [2] | localisation at mitochondria over time [2] | drop of normalized intensity during the imaging period ([2]; live imaging every 5 seconds for 240 frames (20 minutes), 100% = maximum intensity peak) [%] | photostability / signal over time [2]
1 | C[Si]1(C)C2=CC(=[N+]3CCC3)C=CC2=C(c2ccccc2)c2ccc(N3CCC3)cc21 [COMPOUND 1, 1-(7-(azetidin-1-yl)-5,5-dimethyl-10-phenyldibenzo[b,e]silin-3 (5H)-ylidene)azetidin-1-ium chloride] | excellent results | dispersion | accumulation | localizes specifically to the mitochondria | no apparent toxicity | remains clearly localized at the mitochondria; also recorded: appears to mark the mitochondria more clearly than COMPOUND 2 over time | ~25 | –
2 | Cc1ccccc1-c1c2ccc(=[N+]3CCC3)cc-2oc2cc(N3CCC3)ccc12 [COMPOUND 3, 1-(6-(azetidin-1-yl)-9-(o-tolyl)-3H-xanthen-3-ylidene)azetidin-1-ium] | – | – | – | – | – | higher non-specific cytoplasmic background (and lower mitochondrial labelling) | – | retention of signal during the first 10 mins of imaging, but then the signal rapidly drops
3 | c1ccc(-c2c3ccc(=[N+]4CCC4)cc-3oc3cc(N4CCC4)ccc23)cc1 [COMPOUND 4, 1-(6-(azetidin-1-yl)-9-phenyl-3H-xanthen-3-ylidene)azetidin-1-ium chloride] | – | – | – | – | no observable phototoxicity effects | remain faithfully localized to mitochondria over the entire imaging period | – | higher signal retention over time than COMPOUND 3
